Marks after values point to notes of the source that are not given here.

Assay [1] concerns chicken type II collagen-induced arthritis model in SD rats. In words: Hindfoot joint score in chicken type II collagen-induced arthritis model in SD rats. In kind it is in vivo. Also on record: scale not given here. The settings on record: tail vein, every other day. How it is done:
(§1) After inflamed model was successfully established in SD rats, the SD rats were randomly divided into model control group (12 rats), low, medium dose group (8 rats for each), and high dose group (12 rats) of test drug depending on body weight. Rats in the model control group were administered a blank fat emulsion injection (0.5 mL) by tail vein injection every other day for 7 days; rats in the low and medium dose group of test drug were administered a fat emulsion injection of a compound of Formula A (specifically including Compounds I-VI described hereafter) by tail vein injection every other day for 7 days; rats in the high dose group of test drug were administered a fat emulsion injection of a compound of Formula A by tail vein injection every other day for 14 days. 12 same models in the normal control group were also administered a blank fat emulsion injection. Indexes such as hindfoot joint score, hindfoot joint thickness measurement, TNF-α level in serum and hindfoot joint tissues, hindfoot joint pathological section and the like were used to evaluate efficacy of the drug.
(§2) Chicken type II collagen was dissolved in 0.1 mol/L acetic acid at 4° C. while stirring so as to be thoroughly dissolved at a concentration of 2 mg/mL The resulting solution was put into a refrigerator at 4° C. overnight. Liquid paraffin and lanolin were mixed at a ratio of 2:1 (volume ratio), and the mixture was autoclaved to prepare an incomplete Freund's adjuvant (IFA). Bacillus Calmette Guerin (BCG) vaccine (60 mg) was inactivated at 80° C. for 1 hour and transferred to a mortar, into which was dropwise added IFA. After being uniformly grinded, the resulting mixture was pushed and sucked repeatedly by double-syringe to prepare a complete Freund's adjuvant (CFA), with the final concentration of BCG vaccine being 2 mg/mL. An equal amount of chicken type II collagen acid solution was mixed with CFA into a stable emulsion (containing 1 mg chicken type II collagen per milliliter).
(§3) 12 female SD rats were randomly selected from 192 female SD rats as normal control group. The remaining 180 rats was disinfected with iodine tincture. After being deiodinated with 75% ethanol, each of the rat was administered 150 μL collagen emulsion by intradermal injection at the base of the tail, and was administered 100 μL collagen emulsion by intradermal injection at the vola pedis of right hindfoot. Thus, totally 250 μL for each rat was administered. 7 days later, an equal amount of collagen emulsion was intraperitoneal injected as a secondary immune.
(§4) Animal grouping and administration: inflamed rats were divided into model control group, low, medium and high dose groups of test drug based on body weight.
(§5) Rats in each group were scored for the hindfoot joint and measured for the thickness of ankle joint before being inflamed. Normal rats were taken blood from orbital venous plexus. The serum of the blood was separated out and cryopreserved at −20° C. to detect cytokines. Rats were scored for joint after being inflamed for 3 days, and were measured for the thickness of ankle joint before administration (on the 19th day since being inflamed), on the 3rd day and 8th day after administration (on the […] since being inflamed). Rats in each group were taken blood from orbital venous plexus when inflammation was severe (on the 23rd day after being inflamed). The serum of the blood was separated out and cryopreserved at −20° C. 8 rats for each group were sacrificed on the 28th day after being inflamed and were taken blood from intraperitoneal vein. The serum of the blood was separated out and was subjected to serological detection (TNF-α). The rest of rats were sacrificed on the 35th day after being inflamed, and histology index detection was carried out

The subject of assay [2] is TNF-α. In words: TNF-α level in serum of rats with arthritis (ELISA). In kind it is in vivo, SD rats. Here is the method:
as §1
(§6) Compound I used in the present invention was purchased from Xi′ an Libang Pharmaceutical Co., Ltd.; Compounds II-IV were synthesized by the following method. SD rats used in the present invention were purchased from Super-B&K Laboratory Animal Corp. Ltd.; chicken type II collagen was purchased from Sigma, Lot No. 87H5227; rat tumor necrosis factor-α [TNF-α] enzyme-linked immunoassay kit (ELISA) was purchased from Shanghai Biovol Biotech Co., Ltd., Lot No. BV-E12102201.
as §2, §3, §4
as §5, with “8 rats for each group were sacrificed on the 28th day after being inflamed and were taken blood from intraperitoneal vein. The serum of the blood was separated out and was subjected to serological detection (TNF-α). The rest of rats were sacrificed on the 35th day after being inflamed, and histology index detection was carried out” left out
A general note: In an ELISA, binding on a coated surface is turned into a signal by an enzyme label.

For assay [3], the system named is TNF-α. The assay is described as follows: TNF-α level in hindfoot ankle joint tissue of rats with arthritis. In kind it is in vivo, SD rats. How it is done: as §1, §6, §2, §3, §4
as §5, with “8 rats for each group were sacrificed on the 28th day after being inflamed and were taken blood from intraperitoneal vein. The serum of the blood was separated out and was subjected to serological detection (TNF-α). The rest of rats were sacrificed on the 35th day after being inflamed, and histology index detection was carried out” left out

The subject of assay [4] is chicken type II collagen-induced arthritis model in SD rats. The assay is described as follows: Pathological examination score of hindfoot ankle joint of rats with arthritis. It counts as in vivo. Particulars: high dose group (1.40-2.16 mg/kg per compound), every other day for 14 days, n=4. Here is the method:
as §1, §2
12 female SD rats were randomly selected from 192 female SD rats as normal control group. The remaining 180 rats was disinfected with iodine tincture. After being deiodinated with 75% ethanol, each of the rat was administered 150 μL collagen emulsion by intradermal injection at the base of the tail, and was administered 100 μL collagen emulsion by intradermal injection at the vola pedis of right hindfoot. […]
Rats in each group were scored for the hindfoot joint and measured for the thickness of ankle joint before being inflamed. […] Rats were scored for joint after being inflamed for 3 days, and were measured for the thickness of ankle joint before administration (on the 19th day since being inflamed), on the 3rd day and 8th day after administration (on the 20th day since being inflamed). […]

Assay [5] has the same test system. In words: Thickness of right hindfoot ankle joint by microcalliper, collagen-induced arthritis rats. It counts as in vivo. How it is done:
as §1, §2, §3, §4, §5

Setting [6] is: high dose group, before administration (baseline).
Setting [7] is: high dose group, the 3rd day after administration.
Setting [8] is: high dose group, the 8th day after administration.
[9] abbreviates: low dose group, before administration (baseline).
Setting [10] is: low dose group, the 3rd day after administration.
The mark [11] stands for this setting: low dose group, the 8th day after administration.
Setting [12] is: medium dose group, before administration (baseline).
Where [13] appears, read: medium dose group, the 3rd day after administration.
Where [14] appears, read: medium dose group, the 8th day after administration.
[15] abbreviates: left ankle joint, high dose group.
[16] abbreviates: left ankle joint, low dose group.
The mark [17] stands for this setting: left ankle joint, medium dose group.
Setting [18] is: right ankle joint, high dose group.
Setting [19] is: right ankle joint, low dose group.
Setting [20] is: right ankle joint, medium dose group.

Consider “7-α-[9-(4,4,5,5,5-pentafluoropentylsulfinyl)nonyl]-estra-1,3,5(10)-triene-3-acetyl-17-(undec-2-enoyl) [Compound VI]”, for which the “Mean value of hindfoot joint score” value is 5.3 in assay [1] (setting [6]); 4.7**^# in assay [1] (setting [7]); 5.5 in assay [1] (setting [8]); 4.6 in assay [1] (setting [9]); 5.4**^## in assay [1] (setting [10]); 4.9 in assay [1] (setting [11]). For the same molecule, the results for the “Mean value of hindfoot joint score” value in assay [1] (setting [12]), in assay [1] (setting [13]) and in assay [1] (setting [14]) were 4.8, 4.6** and 5.5, respectively. Further, the “TNF-α level in serum (mean ± SD)” value in the assay on TNF-α [2] (setting [7]) was 28.27 ± 37.62 pg/mL; in the assay on TNF-α [2] (setting [8]) it was 26.56 ± 18.06 pg/mL; with TNF-α [2] (setting [10]), 47.22 ± 96.55 pg/mL; in the assay on TNF-α [2] (setting [11]), 197.35 ± 231.02 pg/mL; with TNF-α [2] (setting [13]), 13.08 ± 7.93 pg/mL; in the assay with TNF-α [2] (setting [14]), 78.21 ± 88.90 pg/mL. In addition, the “TNF-α level in ankle (mean ± SD)” value with TNF-α [3] (setting [15]) stood at 12.05 ± 4.01 pg/mL; in the assay with TNF-α [3] (setting [16]), 14.39 ± 3.52 pg/mL; with TNF-α [3] (setting [17]) it was 13.98 ± 3.66 pg/mL; with TNF-α [3] (setting [18]) it was 14.58 ± 2.79 pg/mL; in the assay with TNF-α [3] (setting [19]) it was 15.31 ± 5.02 pg/mL; in the assay with TNF-α [3] (setting [20]), 12.67 ± 5.23 pg/mL. Besides, the “Joint lesion score (mean ± SD)” value in assay [4] is reported as 1.88 ± 1.26.
On to “7-α-[9-(4,4,5,5,5-pentafluoropentylsulfinyl)nonyl]-estra-1,3,5(10)-triene-3-hydroxyl-17-(undec-2-enoyl) [Compound V]”, for which the “Mean value of hindfoot joint score” value in assay [1] (setting [6]) is 4.5; in assay [1] (setting [7]), 5.6^##; in assay [1] (setting [8]), 4.8; in assay [1] (setting [9]) it was 4.6; in assay [1] (setting [10]), 5.1**; in assay [1] (setting [11]), 5.9^##. The “Mean value of hindfoot joint score” value in assay [1] (setting [12]) is reported as 4.4; in assay [1] (setting [13]) it was 5.7^##; in assay [1] (setting [14]), 4.4*. Further, the “Thickness of ankle joint (mean ± SD)” value in assay [5] (setting [6]) was determined as 6.28 ± 0.44 mm; in assay [5] (setting [7]), 6.44 ± 0.60 mm; in assay [5] (setting [8]), 6.07 ± 0.41 mm; in assay [5] (setting [9]), 6.27 ± 0.36 mm; in assay [5] (setting [10]) it was 6.36 ± 0.64 mm; in assay [5] (setting [11]), 6.20 ± 0.52 mm. For the same molecule, the “Thickness of ankle joint (mean ± SD)” value is recorded as 6.09 ± 0.45 mm in assay [5] (setting [12]), 6.74 ± 0.44 mm in assay [5] (setting [13]) and 6.15 ± 0.37 mm in assay [5] (setting [14]). Moreover, the “TNF-α level in serum (mean ± SD)” value in the assay with TNF-α [2] (setting [7]) was found to be 46.48 ± 101.05 pg/mL; in the assay with TNF-α [2] (setting [8]) it was 12.35 ± 9.72 pg/mL; with TNF-α [2] (setting [10]), 66.71 ± 121.06 pg/mL; with TNF-α [2] (setting [11]), 123.73 ± 157.16 pg/mL; in the assay on TNF-α [2] (setting [13]) it was 10.02 ± 14.59 pg/mL; in the assay with TNF-α [2] (setting [14]) it was 23.44 ± 27.21 pg/mL. In addition, the “TNF-α level in ankle (mean ± SD)” value is recorded as 12.76 ± 3.34 pg/mL in the assay on TNF-α [3] (setting [15]); 13.56 ± 5.28 pg/mL with TNF-α [3] (setting [16]); 14.25 ± 5.00 pg/mL in the assay with TNF-α [3] (setting [17]); 13.68 ± 4.44 pg/mL in the assay with TNF-α [3] (setting [18]); 12.71 ± 4.00 pg/mL with TNF-α [3] (setting [19]); 11.73 ± 4.20 pg/mL in the assay with TNF-α [3] (setting [20]). Also, the “Joint lesion score (mean ± SD)” value in assay [4] worked out at 3.75 ± 2.06.
Take `C[C@]12CC[C@@H]3c4ccc(O)cc4C[C@@H](CCCCCCCCC[S+]([O-])CCCC(F)(F)C(F)(F)F)[C@H]3[C@@H]1CC[C@@H]2O` (stereo partly drawn) [Compound I, 7-α-[9-(4,4,5,5,5-pentafluoropentylsulfinyl)nonyl]-estra-1,3,5(10)-triene-3,17β-diol, reference compound]: the “TNF-α level in serum (mean ± SD)” value is reported as 13.48 ± 25.05 pg/mL in the assay with TNF-α [2] (setting [7]); 18.45 ± 12.72 pg/mL with TNF-α [2] (setting [8]); 50.15 ± 60.06 pg/mL with TNF-α [2] (setting [10]); 52.78 ± 67.16 pg/mL with TNF-α [2] (setting [11]); 31.55 ± 54.58 pg/mL with TNF-α [2] (setting [13]); 22.41 ± 25.25 pg/mL in the assay on TNF-α [2] (setting [14]). Also, the “TNF-α level in ankle (mean ± SD)” value with TNF-α [3] (setting [15]) was 8.66 ± 4.33 pg/mL; in the assay on TNF-α [3] (setting [16]), 10.16 ± 5.82 pg/mL; in the assay on TNF-α [3] (setting [17]) it was 9.57 ± 5.10 pg/mL; in the assay with TNF-α [3] (setting [18]) it was 8.98 ± 7.44 pg/mL; in the assay with TNF-α [3] (setting [19]), 10.71 ± 4.61 pg/mL; in the assay with TNF-α [3] (setting [20]), 9.63 ± 3.02 pg/mL.
